Read-outs that look alike come from different tables or passages of the source.
What was measured:
hCMEC [1] = experiment: TS DPH hCMEC (Table S2); assay type: cell-based, human; design: scale not given here
hCMEC [2] = experiment: TS MDAI hCMEC (Table S2); assay type: cell-based, human; design: scale not given here
MATE2K [3] = target: T1, MATE2K (Homo sapiens, UniProt Q86VL8); experiment: Concentration-dependent uptake (Michaelis-Menten) via MATE2K in HEK293 cells; conditions: HEK293, 1 min, net uptake; for Km: read-out: MATE2K KM
MATE1 [4] = target: T2, MATE1 (Homo sapiens, UniProt Q96FL8); experiment: Concentration-dependent uptake (Michaelis-Menten) via MATE1 in HEK293 cells; conditions: for Km: read-out: MATE1 KM
T2 sequence (Q96FL8 1-570): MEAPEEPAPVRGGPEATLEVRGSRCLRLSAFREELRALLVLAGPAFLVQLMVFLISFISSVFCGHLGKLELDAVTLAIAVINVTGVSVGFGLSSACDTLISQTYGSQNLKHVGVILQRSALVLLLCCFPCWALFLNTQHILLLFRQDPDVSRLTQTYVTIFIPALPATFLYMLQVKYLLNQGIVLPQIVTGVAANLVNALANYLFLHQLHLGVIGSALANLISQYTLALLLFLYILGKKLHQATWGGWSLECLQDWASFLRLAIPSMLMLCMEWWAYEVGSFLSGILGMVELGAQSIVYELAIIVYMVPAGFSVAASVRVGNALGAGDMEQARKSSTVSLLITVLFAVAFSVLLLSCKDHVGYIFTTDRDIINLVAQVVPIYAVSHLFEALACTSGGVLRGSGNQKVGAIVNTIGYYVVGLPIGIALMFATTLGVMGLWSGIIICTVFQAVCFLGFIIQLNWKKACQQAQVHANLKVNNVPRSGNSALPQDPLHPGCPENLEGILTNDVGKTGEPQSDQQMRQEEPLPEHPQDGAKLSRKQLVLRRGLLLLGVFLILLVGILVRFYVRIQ

MATE2K [5] = target: T1, MATE2K; experiment: Uptake ratio in MATE2K-overexpressing HEK293 cells vs empty vector (2.5 μM, 1 min, HPLC-MS/MS); assay type: cell-based; conditions: for MATE2K ratio in this study: Table S1
[6] = human; cited from earlier work
MATE1 [7] = target: T2, MATE1; experiment: Uptake ratio in MATE1-overexpressing HEK293 cells vs empty vector (2.5 μM, 1 min, HPLC-MS/MS); assay type: cell-based; conditions: for MATE1 ratio in this study: Table S1
[8] = system: MATE1, MATE2K, OCT1, OCT2; experiment: Substrate specificity and overlap among the four transporters (ratio cutoff 2); assay type: cell-based, human
[9] = fold uptake over empty vector, 2.5 μM, 1 min
[10] = uptake ratio MATE2K-overexpressing vs empty-vector HEK293 cells, 2.5 μM, 1 min, mean
[11] = uptake ratio MATE1-overexpressing vs empty-vector HEK293 cells, 2.5 μM, 1 min, mean

T1 sequence (Q86VL8 1-566 isoform Q86VL8-3): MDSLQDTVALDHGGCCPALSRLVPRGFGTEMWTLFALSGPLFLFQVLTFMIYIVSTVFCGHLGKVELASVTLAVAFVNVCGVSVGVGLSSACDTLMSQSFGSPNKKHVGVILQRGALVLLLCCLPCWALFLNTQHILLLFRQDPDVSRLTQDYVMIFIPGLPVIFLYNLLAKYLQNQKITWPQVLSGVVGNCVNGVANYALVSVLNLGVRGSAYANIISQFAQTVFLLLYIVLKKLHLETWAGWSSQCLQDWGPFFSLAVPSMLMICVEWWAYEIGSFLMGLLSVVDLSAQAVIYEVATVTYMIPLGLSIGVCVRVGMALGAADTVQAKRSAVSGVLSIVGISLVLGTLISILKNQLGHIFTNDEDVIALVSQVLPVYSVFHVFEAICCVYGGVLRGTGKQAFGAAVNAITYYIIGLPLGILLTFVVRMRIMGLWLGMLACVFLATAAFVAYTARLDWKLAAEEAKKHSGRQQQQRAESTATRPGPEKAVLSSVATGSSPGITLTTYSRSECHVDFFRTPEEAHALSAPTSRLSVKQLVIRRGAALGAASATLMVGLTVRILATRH

Compound | MATE2K Vmax (MATE2K [3]) | MATE1 Vmax (MATE1 [4]; HEK293, 1 min, net uptake) | MATE2K ratio (MATE2K [5]; [9]) | MATE1 ratio (MATE1 [7]; [9]) | Substrate specificity among MATE1, MATE2K, OCT1, OCT2 ([8]; transport ratio cutoff of 2) | Km (MATE2K [3]) [µM] | Km (MATE1 [4]; HEK293, 1 min, net uptake) [µM] | other results
Cc1c(N)c(=O)n(-c2ccccc2)n1C [4-Aminoantipyrine] | linear | linear | – | – | – | – | – | TS DPH hCMEC (hCMEC [1]; Table S2): 1.09; TS MDAI hCMEC (hCMEC [2]; Table S2): 1.01
C=CCN1CCCC1CNC(=O)c1cc2nn[nH]c2cc1OC (stereo not shown) [Alizapride] | – | – | 2.64 | 3.68 | – | – | – | MATE2 (uptake ratio) (MATE2K [5]; mean ratio of uptake in MATE2K-overexpressing HEK293 cells vs empty vector, 2.5 μM, 1 min): 2.64; eliminated unchanged via the kidneys [6]: more than 70%; MATE1 ratio (MATE1 [7]; fold uptake over empty vector, 2.5 μM, 1 min, listed as alizapride): above 2; MATE1 (uptake ratio) (MATE1 [7]; mean ratio of uptake in MATE1-overexpressing HEK293 cells vs empty vector, 2.5 μM, 1 min): 3.68
C[C@H](CS)C(=O)N1CCC[C@H]1C(=O)O [Captopril] | – | – | – | – | – | – | – | Substrate specificity among MATE1, MATE2K, OCT1, OCT2 [8]: no substrates of the four transporters
C[C@H](N)[C@@H](O)c1ccccc1 [Cathine] | – | – | – | – | OCT2 only | – | – | TS DPH hCMEC (hCMEC [1]): 0.35
CC1(C)N=C(N)N=C(N)N1c1ccc(Cl)cc1 [Cycloguanil] | – | – | 10.75 | 21.02 | All four transporters | – | – | MATE2K ratio in this study (MATE2K [5]; 2.5 μM, 1 min): 10.75; MATE1 ratio in this study (MATE1 [7]; 2.5 μM, 1 min): 21.02
CC(CCc1ccc(O)cc1)NCCc1ccc(O)c(O)c1 (stereo not shown) [Dobutamine] | 493 pmol × mg protein^–1 × min^–1 | 2586 pmol × mg protein^–1 × min^–1 | 2.77 | 17.41 | – | 86.4 | 88.6 | TS DPH hCMEC (hCMEC [1]; Table S2): 0.67; TS MDAI hCMEC (hCMEC [2]; Table S2): 0.99
NC(N)=Nc1nc(CSCCC(N)=NS(N)(=O)=O)cs1 [Famotidine] | – | – | – | – | – | – | – | eliminated unchanged via the kidneys [6]: more than 70%
Nc1ccncc1 [Fampridine (4-aminopyridine), 4-aminopyridine] | – | – | – | – | OCT2 only | – | – | –
CN[C@@H]1CCc2[nH]c3ccc(C(N)=O)cc3c2C1 [Frovatriptan] | 869 pmol × mg protein^–1 × min^–1 | 4568 pmol × mg protein^–1 × min^–1 | 31.50 | 34.35 | All four transporters | 11.2 | 70.4 | TS DPH hCMEC (hCMEC [1]; Table S2): 0.83; TS MDAI hCMEC (hCMEC [2]; Table S2): 0.88
CCCCCCN [Hexylamine] | – | – | – | – | OCT1 only | – | – | MATE2K ratio (MATE2K [5]): 1.08; MATE1 ratio (MATE1 [7]): 1.21
CC(=O)OC(C)C[N+](C)(C)C (stereo not shown) [Methacholine] | 1240 pmol × mg protein^–1 × min^–1 | 17,843 pmol × mg protein^–1 × min^–1 | 2.57 | 21.58 | – | 1400 | 1990 | –
C[N@+]1(CC2CC2)CC[C@]23c4c5ccc(O)c4O[C@H]2C(=O)CC[C@@]3(O)[C@H]1C5 [Methylnaltrexone] | 41.6 pmol × mg protein^–1 × min^–1 | 55.8 pmol × mg protein^–1 × min^–1 | – | – | All four transporters | 86.8 | 17.9 | TS DPH hCMEC (hCMEC [1]; Table S2): 1.11; TS MDAI hCMEC (hCMEC [2]; Table S2): 0.84
COC(=O)C(c1ccccc1)C1CCCCN1 (stereo not shown) [Methylphenidate] | – | – | – | – | OCT2 only | – | – | TS DPH hCMEC (hCMEC [1]): 0.33; TS MDAI hCMEC (hCMEC [2]): 0.24
COc1ccc(OC)c(C(O)CNC(=O)CN)c1 (stereo not shown) [Midodrine] | – | – | 1.43 | 4.53 | MATE1 only | – | – | TS DPH hCMEC (hCMEC [1]; Table S2): 1.05; TS MDAI hCMEC (hCMEC [2]; Table S2): 1.02
CC[N+](CC)(CC)CC(=O)Nc1c(C)cccc1C [N-Ethyl-lidocaine] | – | – | 14.68 | 36.39 | All four transporters | – | – | –
N=C(N)c1ccc2cc(OC(=O)c3ccc(N=C(N)N)cc3)ccc2c1 [Nafamostat] | – | – | – | – | MATE1 only | – | – | MATE2K ratio (MATE2K [5]): 1.64; MATE1 ratio (MATE1 [7]): 5.45

Compound | MATE2K Vmax (MATE2K [3]) | MATE1 Vmax (MATE1 [4]; HEK293, 1 min, net uptake) | MATE2K ratio (MATE2K [5]; [9]) | MATE1 ratio (MATE1 [7]; [9]) | Substrate specificity among MATE1, MATE2K, OCT1, OCT2 ([8]; transport ratio cutoff of 2) | Km (MATE2K [3]) [µM] | Km (MATE1 [4]; HEK293, 1 min, net uptake) [µM] | other results
COc1cc(C(O)CN)ccc1O (stereo not shown) [Normetanephrine] | – | – | 0.82 | 1.80 | OCT1 only | – | – | –
COc1ccc2c3c1O[C@H]1C(=O)CC[C@@]4(O)[C@@H](C2)NCC[C@]314 [Noroxycodone] | – | – | – | – | OCT1 only | – | – | MATE2K ratio (MATE2K [5]): 1.13; MATE1 ratio (MATE1 [7]): 1.39
CC(C)NCC(O)c1cc(O)cc(O)c1 (stereo not shown) [Orciprenaline] | – | – | 23.10 | 34.88 | All four transporters | – | – | –
CCOC(=O)C1(c2ccccc2)CCN(C)CC1 [Pethidine] | – | – | – | – | MATE2K only | – | – | –
[H]/N=C(/N)N/C(=N/[H])NCCc1ccccc1 [Phenformin] | 1361 pmol × mg protein^–1 × min^–1 | 8451 pmol × mg protein^–1 × min^–1 | 3.01 | 19.54 | – | 73.1 | 101 | –
CNC[C@H](O)c1cccc(O)c1 [Phenylephrine] | 776 pmol × mg protein^–1 × min^–1 | 11,611 pmol × mg protein^–1 × min^–1 | 1.75 | 13.78 | – | 434 | 474 | TS DPH hCMEC (hCMEC [1]; Table S2): 0.76; TS MDAI hCMEC (hCMEC [2]; Table S2): 1.03
Cc1ncc(CO)c(CN)c1O [Pyridoxamine] | 989.5 pmol × mg protein^–1 × min^–1 | 5442 pmol × mg protein^–1 × min^–1 | 1.36 | 2.68 | MATE1 only | 1550 | 1690 | MATE2 (MATE2K [5]; [10]): 1.36; MATE1 (MATE1 [7]; [11]): 2.68
Cc1ncc(CO)c(CO)c1O [Pyridoxin] | 593 pmol × mg protein^–1 × min^–1 | 10,014 pmol × mg protein^–1 × min^–1 | 1.18 | 2.33 | – | 495 | 4230 | MATE2 (MATE2K [5]; [10]): 1.18; MATE1 (MATE1 [7]; [11]): 2.33
C#CCN[C@@H]1CCc2ccccc21 [Rasagiline] | linear | 194 pmol × mg protein^–1 × min^–1 | 2.16 | 1.18 | specific for only OCT2 and MATE2K | – | 167 | MATE2 (MATE2K [5]; [10]): 2.16; TS DPH hCMEC (hCMEC [1]; Table S2): 0.54; TS MDAI hCMEC (hCMEC [2]; Table S2): 0.51; MATE1 (MATE1 [7]; [11]): 1.18
COCCn1c2c([n+](Cc3cnccn3)c1C)C(=O)c1ccccc1C2=O [Sepantronium] | 78.5 pmol × mg protein^–1 × min^–1 | – | – | – | – | 8.54 | 80.9 | MATE2 (MATE2K [5]): 9.45; MATE2K ratio (MATE2K [5]): 9.45; TS DPH hCMEC (hCMEC [1]): 1.01; TS MDAI hCMEC (hCMEC [2]): 0.99; MATE1 Vmax (MATE1 [4]): 304 pmol × mg protein^–1 × min^–1; MATE1 (MATE1 [7]): 6.15; MATE1 ratio (MATE1 [7]): 6.15
Cc1ncc(C[n+]2csc(CCO)c2C)c(N)n1 [Thiamine] | 109.2 pmol × mg protein^–1 × min^–1 | 599 pmol × mg protein^–1 × min^–1 | – | – | All four transporters | 17.3 | 17.2 | MATE2K ratio in this study (MATE2K [5]; 2.5 μM, 1 min): 10.63; MATE2 (MATE2K [5]; [10]): 10.63; MATE1 ratio in this study (MATE1 [7]; 2.5 μM, 1 min): 33.42; MATE1 (MATE1 [7]; [11]): 33.42
CC[C@@]1(O)C(=O)OCc2c1cc1n(c2=O)Cc2cc3c(CN(C)C)c(O)ccc3nc2-1 [Topotecan] | – | – | – | – | MATE1 only | – | – | MATE2K ratio in this study (MATE2K [5]; 2.5 μM, 1 min): 1.61; MATE2 (MATE2K [5]; [10]): 1.61; MATE1 ratio in this study (MATE1 [7]; 2.5 μM, 1 min): 2.53; MATE1 (MATE1 [7]; [11]): 2.53
NCCc1ccc(O)cc1 [Tyramine] | 2868 pmol × mg protein^–1 × min^–1 | 5948 pmol × mg protein^–1 × min^–1 | – | – | – | 1060 | 136 | MATE2K ratio in this study (MATE2K [5]; 2.5 μM, 1 min): 1.39; MATE2 (MATE2K [5]; [10]): 1.39; MATE1 ratio in this study (MATE1 [7]; 2.5 μM, 1 min): 10.06; MATE1 (MATE1 [7]; [11]): 10.06
COc1cc(Cc2cnc(N)nc2N)cc(OC)c1OC [trimethoprim] | – | – | – | – | OCT1 only | – | – | MATE2 (MATE2K [5]; [10]): 1.23; MATE1 (MATE1 [7]; [11]): 1.52
thyrotropin-releasing hormone | – | – | – | – | no substrates of the four transporters | – | – | –

Source: paper PMC12207590, “Substrate Specificity of the Organic Cation Transporters MATE1 and MATE2K and Functional Overlap with OCT1 and OCT2” (Journal of Medicinal Chemistry, 2025)
